This is an account of results in patent publication US20100240537A1, “Substituted 6-(alkylbenzylamino)purine derivatives for use as cytokinin receptor antagonists and preparations containing these derivatives” (priority 2007, published 2010).

Each structure is given as a SMILES string.

Assay [1] concerns melanoma cell line G-361. Nature of the assay: Calcein AM cytotoxicity assay, G-361. Conditions: Homo sapiens, G-361, 72 hours. Format: cell-based, human. An excerpt:
(§1) Absence of toxic effects against mammalian (especially human) cell lines in a wide concentration range is one of the requirements on compounds intended for use in agriculture. Because toxic compounds negatively influence metabolic processes in cells, many standard cytotoxicity assays are based on measurement of metabolisation rate of various artificial substrates. Resulting product is then quantified e.g. by means of spectrometry. The assays can be easily modified for use in 96-well plates. For evaluation of cytotoxic effect of the novel substituted 6-(alkylbenzylamino)purine derivatives of this invention, a microtiter assay based on quantification of metabolisation of Calcein AM was used. The assay is widely used in drug screening programs and in chemosensitivity testing. In live cells, Calcein AM is enzymatically hydrolysed and accumulation of resulting calcein is manifested by green fluorescence.
(§2) The cells were maintained in Nunc/Corning 80 cm^2 plastic tissue culture flasks and cultured in cell culture medium (DMEM with 5 g/l glucose, 2 mM glutamine, 100 U/ml penicillin, 100 μg/ml streptomycin, 10% fetal calf serum and sodium bicarbonate).
(§3) The cell suspensions were prepared and diluted according to the particular cell type and the expected target cell density (10^4 cells per well based on cell growth characteristics) and pippetted (80 μl) into 96-well plates. Inoculates were allowed a pre-incubation period of 24 hours at 37° C., 100% humidity and 5% CO2 for stabilisation. Tested compounds were added in total volume of 20 μl of water at time zero. Usually, test compound was evaluated at six 3-fold dilutions. In routine testing, the highest concentration tested was 100 μM, the eventual changes depended on physico-chemical characteristics of the respective compound. All drug concentrations were tested in triplicates. Incubations of cells with the test compounds lasted for 72 hours at 37° C., in 5% CO2 atmosphere and 100% humidity. At the end of incubation period Calcein AM (Molecular Probes) in PBS was added into final concentration of 1 μg/ml. After another 1 hour of incubation fluorescence (FD) was measured with the Labsystem FIA Reader Fluoroscan Ascent (UK). Growth inhibition (GI) was estimated using the following equitation: GI=(mean FDdrug exposed wells−mean FDblank)/(mean FDcontrol wells−mean FDblank)×100%.

Assay [2] concerns breast carcinoma cell line MCF-7. Nature of the assay: Calcein AM cytotoxicity assay, MCF-7. In kind it is cell-based, human. Conditions: Homo sapiens, MCF7, 72 hours.
Description: as §1, §2, §3

In assay [3] the test system is cytokinin-dependent tobacco callus Nicotiana tabacum L. cv. Wisconsin 38. Nature of the assay: Cytokinin-dependent tobacco callus bioassay. Conditions: for activity (%) [10^−6 mol · l^−1 BA = 100%]: at concentration with highest activity, n.a. means inactive; for concentration with highest activity: callus fresh weight after four weeks. In kind it is cell-based. As to the method: Stimulatory effect of newly prepared derivatives was tested using cytokinin-dependent tobacco callus. The cytokinin-dependent tobacco callus Nicotiana tabacum L. cv. Wisconsin 38 was maintained at 25° C. in darkness on modified MS medium, containing per 1 liter: 4 μmol of nicotinic acid, 2.4 μmol of pyridoxine hydrochloride, 1.2 μmol of thiamine, 26.6 μmol of glycine, 1.37 μmol of glutamine, 1.8 μmol of myo-inositol, 30 g of sucrose, 8 g of agar, 5.37 μmol of NAA and 0.5 μmol of the compound tested. Subcultivation was carried out every three weeks. Fourteen days before the bioassay, the callus tissue was transferred to the media without 6-benzylaminopurine. The biological activity was determined from the increase of the fresh callus weight after four weeks of cultivation. Five replicates were prepared for each concentration of the compound tested and the entire test was repeated twice. […] The compounds to be tested were dissolved in dimethylsulfoxide (DMSO) and the solution brought up to 10^−3M with distilled water. This stock solution was further diluted with the respective media used for the biotest to a concentration ranging from 10^−8M to 10^−4M.
From the obtained data, the concentration with the highest activity was selected for each compound tested. Relative activity of the compound at this concentration was calculated (Table 3). The activity obtained for 10^−6 M of the control substance 6-benzylaminopurine was postulated as 100% biological activity. […]

The target in assay [4] is T1, CRE1/AHK4 (Arabidopsis thaliana, UniProt Q9C5U0).
T1 construct: expressed in transfected cells; host or cells: Escherichia coli KMI001, plasmid pIN-III-AHK4
T1 sequence (Q9C5U0 whole entry): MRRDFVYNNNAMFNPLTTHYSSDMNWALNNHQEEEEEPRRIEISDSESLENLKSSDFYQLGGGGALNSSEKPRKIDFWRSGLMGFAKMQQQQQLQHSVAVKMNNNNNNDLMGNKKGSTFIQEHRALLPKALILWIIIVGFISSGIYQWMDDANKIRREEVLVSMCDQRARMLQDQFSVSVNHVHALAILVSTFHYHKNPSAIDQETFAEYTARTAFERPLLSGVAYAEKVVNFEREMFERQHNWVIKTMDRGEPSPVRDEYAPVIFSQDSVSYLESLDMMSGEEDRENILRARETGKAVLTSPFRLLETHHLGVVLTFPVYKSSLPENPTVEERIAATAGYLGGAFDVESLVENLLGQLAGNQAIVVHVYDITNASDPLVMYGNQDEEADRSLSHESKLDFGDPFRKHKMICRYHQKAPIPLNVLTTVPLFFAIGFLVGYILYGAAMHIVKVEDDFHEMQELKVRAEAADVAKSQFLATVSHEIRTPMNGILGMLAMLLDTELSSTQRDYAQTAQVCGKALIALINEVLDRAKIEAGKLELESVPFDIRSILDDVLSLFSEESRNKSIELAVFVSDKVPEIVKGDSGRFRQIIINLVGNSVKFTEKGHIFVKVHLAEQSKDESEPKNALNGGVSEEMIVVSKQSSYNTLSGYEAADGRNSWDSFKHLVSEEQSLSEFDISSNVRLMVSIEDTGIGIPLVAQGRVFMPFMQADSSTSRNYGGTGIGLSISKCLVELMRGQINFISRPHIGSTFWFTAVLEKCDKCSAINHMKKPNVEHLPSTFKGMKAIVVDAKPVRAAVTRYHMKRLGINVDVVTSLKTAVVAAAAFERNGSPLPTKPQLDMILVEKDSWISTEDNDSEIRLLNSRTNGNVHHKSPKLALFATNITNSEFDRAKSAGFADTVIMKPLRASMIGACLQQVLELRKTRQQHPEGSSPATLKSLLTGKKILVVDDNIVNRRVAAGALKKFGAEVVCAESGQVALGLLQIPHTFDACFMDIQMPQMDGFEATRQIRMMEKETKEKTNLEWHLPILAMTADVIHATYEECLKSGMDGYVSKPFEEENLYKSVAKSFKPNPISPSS
Nature of the assay: Activation of cytokinin receptor CRE1/AHK4 in E. coli KMI001 (β-galactosidase reporter). Conditions: for EC50 CRE1/AHK4 (activation of cytokinin receptor): E. coli KMI001 pIN-III-AHK4, 17 h incubation, n.i. means without interaction. Format: cell-based. As to the method:
Escherichia coli strains KMI001 harbouring the plasmid pIN-III-AHK4 or pSTV28-AHK3 were grown overnight at 25° C. in M9 media enriched with 0.1% casamino acids to OD600˜1. The preculture was diluted 1:600 in 1 ml M9 medium containing 0.1% casamino acids and 1 μl stock solution of either the tested compound (10^−7 M−5×10^−5 M) or solvent control (DMSO, ethanol, methanol) were added. The cultures were further grown at 25° C. in microtiter plate, 200 μl per well. […] The cultures were centrifuged and 50 μl aliquots of the supernatant were transferred to microtiter plate containing 2 μl 50 mM 4-methyl umbelliferyl galactoside which was subsequently incubated for 1 h at 37° C. The reaction was stopped by adding 100 μl 0.2 M Na2CO3. Fluorescence was measured using a Fluoroscan Ascent (Labsystems, Finland) at the excitation and emission wavelengths of 365 and 460 nm, respectively. The OD600 of remaining culture was determined and β-galactosidase activity was calculated as nmol 4-methylumbelliferone×OD600^−1×h^−1.
The EC50 value, the compound concentration activating the receptor to 50%, was calculated from the obtained dose response curves. The compound functioning as cytokinin antagonists should not activate cytokinin signalling pathway. The values shown in Table 2 are means of three replicates and the entire test was repeated at least twice.

For assay [5], the system named is human diploid fibroblasts BJ. Nature of the assay: Calcein AM cytotoxicity assay, BJ. Particulars: Homo sapiens, Fibroblast, 72 hours. Format: cell-based.
Description: as §1, §2, §3

For orientation: GI50 means the concentration at which growth is held to half of that of the control. What is called EC50 is the concentration needed to bring the measured effect to its halfway point. Low readings indicate higher potency in that assay, high ones lower potency in that assay. On to `c1ccc(CNc2ncnc3nc[nH]c23)cc1` [6-(benzylamino)purine], for which the GI50 in assay [1], in assay [2] and in assay [5] was more than 100 µM throughout. Further, the “activity (%) [10^−6 mol · l^−1 BA = 100%]” value (“activity (%)” below) in assay [3] came out at 100%. Besides, the “concentration with highest activity” value in assay [3] was 10^−6 mol.l^−1. Also, the EC50 in assay [4] was found to be 19.7 µM.
For `Cc1cccc(CNc2ncnc3nc[nH]c23)c1O` [Compound 8, 6-(2-hydroxy-3-methylbenzylamino)purine], the GI50 in assay [1], in assay [2] and in assay [5] was more than 50 µM each time. Moreover, the “activity (%)” value in assay [3] is given as 2 (±2) %. For the same compound, in assay [3], the “concentration with highest activity” value was 10^−4 mol.l^−1. In addition, the “EC50 CRE1/AHK4 (activation of cytokinin receptor)” value in assay [4] is “n.i”.
Take `Cc1ccc(O)c(CNc2ncnc3nc[nH]c23)c1` [Compound 10, 6-(2-hydroxy-5-methylbenzylamino)purine]: the GI50 in assay [1], in assay [2] and in assay [5] was more than 100 µM in each case. For the same compound, in assay [3], the “activity (%)” value was 35 (±8) %. Moreover, the “concentration with highest activity” value in assay [3] is given as 10^−4 mol.l^−1. Besides, the “EC50 CRE1/AHK4 (activation of cytokinin receptor)” value in assay [4] was “n.i”.
